One molecule from patent publication US20250082763A1, “COMBINATION DRUG FOR TREATING TRIPLE-NEGATIVE BREAST CANCER” (HINOVA PHARMACEUTICALS INC., priority 2022, published 2025) can be followed below.

The experiment deals with AR+ TNBC cells (MDA-MB-453, SUM159PT and MFM-223) and AR- TNBC (MDA-MB-468 and HCC1937). In words: Antiproliferation in AR positive and negative TNBC cells (summary over the cell line panel). The experiment is classed as cell-based. Particulars: AR+ TNBC cells: MDA-MB-453, SUM159PT and MFM-223. Here is the method:
For MDA-MB-453, MFM-223, SUM159PT, MDA-MB-468, and HCC1937, 4,000, 3,000, 1,000, 3,000, and 3,000 cells were plated per well in 96-well microplates (Corning Inc), respectively. Cells were treated with serial dilutions of tested compounds with the maximum working concentration of 10 μM. Cell survival was measured 5 days later using a CellTiter-Glo luminescent cell viability assay kit (Promega Corporation). Luminescence was recorded by FLUOstar Omega microplate reader (BMG Labtech). Half maximal inhibitory concentration (IC50) was determined with GraphPad Prism using baseline correction (by normalizing to dimethyl sulfoxide (DMSO) control)

Regarding `N#Cc1ccc(O[C@H]2CC[C@H](NC(=O)c3cnc(N4CCC(CN5CCC6(CC5)CN(c5ccc7c(c5)C(=O)N(C5CCC(=O)NC5=O)C7=O)C6)CC4)nn3)CC2)cc1Cl` (stereo partly shown) [Compound 279], the “anti-proliferation activity in AR+ TNBC cells” value is listed as “superior anti-proliferation activity”.
